Test results as given in patent publication US20240286998A1, “F[…], ANALOGUES THEREOF, AND METHODS USING SAME” (Saint Joseph's University, priority 2021, published 2024).
Where two headings read alike, the source gives them in different places.

Columns and labels:
5-HT2A = 5-HT2A (Homo sapiens (Human), UniProt P28223); assay: 5-HT2A Gq-mediated calcium flux functional assay; format: cell-based
5-HT2B = 5-HT2B (Homo sapiens (Human), UniProt P41595); assay: 5-HT2B Gq-mediated calcium flux functional assay; format: cell-based
Serotonin 5-HT2A (human) = Serotonin 5-HT2A (human) (Homo sapiens (Human), UniProt P28223); assay: 5-HT2A receptor binding, [3H]-ketanserin competition in membrane fractions; settings: 1 nM [3H]-ketanserin, Cheng-Prusoff, N=1-3
5-HT2C = 5-HT2C (Homo sapiens (Human), UniProt P28335); assay: 5-HT2C Gq-mediated calcium flux functional assay; format: cell-based; settings: for 5-HT2C-Ca2+ FLUX Emax (% 5-HT): IA = Inactive, N=1-3
5-HT2C, sequence (P28335 whole entry, looked up): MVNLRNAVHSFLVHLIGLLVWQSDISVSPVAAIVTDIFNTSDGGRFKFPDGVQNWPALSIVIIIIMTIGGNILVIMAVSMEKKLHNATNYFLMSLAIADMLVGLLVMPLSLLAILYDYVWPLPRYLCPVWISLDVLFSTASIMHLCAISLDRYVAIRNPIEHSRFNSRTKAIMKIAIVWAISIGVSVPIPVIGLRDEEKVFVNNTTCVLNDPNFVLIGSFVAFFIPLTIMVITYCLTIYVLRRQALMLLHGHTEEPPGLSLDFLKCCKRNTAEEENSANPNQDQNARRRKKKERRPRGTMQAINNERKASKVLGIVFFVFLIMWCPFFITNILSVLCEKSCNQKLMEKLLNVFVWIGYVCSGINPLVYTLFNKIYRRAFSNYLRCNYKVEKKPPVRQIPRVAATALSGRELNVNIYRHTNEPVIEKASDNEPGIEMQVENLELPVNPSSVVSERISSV

5-HT2B, sequence (P41595 whole entry): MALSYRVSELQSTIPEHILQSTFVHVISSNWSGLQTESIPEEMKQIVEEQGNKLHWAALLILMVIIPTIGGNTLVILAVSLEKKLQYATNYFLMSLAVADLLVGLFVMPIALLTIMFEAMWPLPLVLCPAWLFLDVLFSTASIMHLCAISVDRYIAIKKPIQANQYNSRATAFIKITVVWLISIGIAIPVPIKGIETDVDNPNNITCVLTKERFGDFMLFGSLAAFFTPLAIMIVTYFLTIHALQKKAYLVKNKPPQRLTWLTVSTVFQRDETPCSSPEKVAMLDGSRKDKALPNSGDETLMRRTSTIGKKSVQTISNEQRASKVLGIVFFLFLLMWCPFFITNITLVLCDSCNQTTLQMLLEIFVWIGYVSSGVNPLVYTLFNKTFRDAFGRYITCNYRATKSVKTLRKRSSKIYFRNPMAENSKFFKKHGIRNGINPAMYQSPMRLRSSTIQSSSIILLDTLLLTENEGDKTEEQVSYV

In the case of `Fc1ccc2[nH]cc(CCN(C3CCC3)C3CC3)c2c1` [compound 173, N-cyclopropyl-N-(2-(5-fluoro-1H-indol-3-yl)ethyl)cyclobutanamine], the EC50 (5-HT2A) is reported as 7.24 nM, the “5-HT2A-Ca2+ FLUX Emax (% 5-HT)” value (5-HT2A; IA = Inactive, N=1-3) is reported as 87.4 ± 0.7 % 5-HT and the EC50 (5-HT2B) is reported as 17.8 nM. The “5-HT2B-Ca2+ FLUX Emax (% 5-HT)” value (5-HT2B; IA = Inactive, N=1-3) was 82.8 ± 0.8 % 5-HT, the “5-HT2A pKi ± SEM” value (Serotonin 5-HT2A (human)) was 6.58 and the EC50 (5-HT2C) was 302 nM. The “5-HT2C-Ca2+ FLUX Emax (% 5-HT)” value (5-HT2C) was 80.4 ± 1.2 % 5-HT.
For `CN(CCc1c[nH]c2ccc(F)cc12)C1CC1` [compound 160, N-(2-(5-fluoro-1H-indol-3-yl)ethyl)-N-methylcyclopropanamine], the “5-HT2A pKi ± SEM” value (Serotonin 5-HT2A (human)) was 7.41 ± 0.33.
`CCN(C)CCc1c[nH]c2c(C)cc(F)cc12` [compound 169, N-ethyl-2-(5-fluoro-7-methyl-1H-indol-3-yl)-N-methylethan-1-amine] was tested, and the “5-HT2A pKi ± SEM” value (Serotonin 5-HT2A (human)) was 6.05.
`C=CCN(CCc1c[nH]c2ccc(F)cc12)C1CCC1` [Example 14, N-allyl-N-(2-(5-fluoro-1H-indol-3-yl)ethyl)cyclobutanamine] was tested, and the “5-HT2A pKi ± SEM” value (Serotonin 5-HT2A (human)) was 6.09.
For `CCC(C)N(CCc1c[nH]c2ccc(F)cc12)C1CC1` (centres unmarked) [compound 172, N-(sec-butyl)-N-(2-(5-fluoro-1H-indol-3-yl)ethyl)cyclopropanamine], the EC50 (5-HT2A) was 3.98 nM, the “5-HT2A-Ca2+ FLUX Emax (% 5-HT)” value (5-HT2A; IA = Inactive, N=1-3) was 94.0 ± 0.6 % 5-HT and the EC50 (5-HT2B) was 6.46 nM. The “5-HT2B-Ca2+ FLUX Emax (% 5-HT)” value (5-HT2B; IA = Inactive, N=1-3) was 93.5 ± 0.8 % 5-HT, the “5-HT2A pKi ± SEM” value (Serotonin 5-HT2A (human)) was 6.47 and the EC50 (5-HT2C) was 151 nM. The “5-HT2C-Ca2+ FLUX Emax (% 5-HT)” value (5-HT2C) was 82.3 ± 1.7 % 5-HT.
For `CCCN(CCc1c[nH]c2c(F)cccc12)C(C)CC` (centres unmarked) [compound 163, N-[2-(7-fluoro-1H-indol-3-yl)ethyl]-N-propylbutan-2-amine], the “5-HT2A pKi ± SEM” value (Serotonin 5-HT2A (human)) was 5.65 ± 0.004.
`CCC(C)N(CC#N)CCc1c[nH]c2ccc(F)cc12` (centres unmarked) [compound 177, 2-(sec-butyl(2-(5-fluoro-1H-indol-3-yl)ethyl)amino)acetonitrile] was tested, and the “5-HT2A pKi ± SEM” value (Serotonin 5-HT2A (human)) was 5.71.
In the case of `CCCN(CCc1c[nH]c2c(F)cccc12)C1CCC1` [compound 162, N-(2-(7-fluoro-1H-indol-3-yl)ethyl)-N-propylcyclobutanamine], the “5-HT2A pKi ± SEM” value (Serotonin 5-HT2A (human)) is reported as 5.91.
`C=CCN(CCC)CCc1c[nH]c2ccc(F)cc12` [compound 35, N-(2-(5-fluoro-1H-indol-3-yl)ethyl)-N-propylprop-2-en-1-amine] was tested, and the “5-HT2A pKi ± SEM” value (Serotonin 5-HT2A (human)) was 6.38 ± 0.29.
In the case of `CCN(C)CCc1c[nH]c2cc(C)c(F)cc12` [compound 175, N-ethyl-2-(5-fluoro-6-methyl-1H-indol-3-yl)-N-methylethan-1-amine], the EC50 (5-HT2A) is reported as 6.76 nM, the “5-HT2A-Ca2+ FLUX Emax (% 5-HT)” value (5-HT2A; IA = Inactive, N=1-3) is reported as 48.6 ± 2.8 % 5-HT and the “5-HT2A pKi ± SEM” value (Serotonin 5-HT2A (human)) is reported as 5.96. For the same molecule, the EC50 (5-HT2C) was 102 nM and the “5-HT2C-Ca2+ FLUX Emax (% 5-HT)” value (5-HT2C) was 51.2 ± 2.0 % 5-HT.
With `CCN(C)CCc1c[nH]c2c(F)cccc12` [Example 7, N-ethyl-2-(7-fluoro-1H-indol-3-yl)-N-methylethan-1-amine] the “5-HT2A pKi ± SEM” value (Serotonin 5-HT2A (human)) was 6.02.
With `C#CCN(CCc1c[nH]c2ccc(F)cc12)C(C)CC` (centres unmarked) [compound 176, N-(2-(5-fluoro-1H-indol-3-yl)ethyl)-N-(prop-2-yn-1-yl)butan-2-amine] the EC50 (5-HT2A) was 40.7 nM, the “5-HT2A-Ca2+ FLUX Emax (% 5-HT)” value (5-HT2A; IA = Inactive, N=1-3) was 97.8 ± 1.1 % 5-HT and the EC50 (5-HT2B) was 28.8 nM. The “5-HT2B-Ca2+ FLUX Emax (% 5-HT)” value (5-HT2B; IA = Inactive, N=1-3) was 103.0 ± 0.6 % 5-HT, the “5-HT2A pKi ± SEM” value (Serotonin 5-HT2A (human)) was 5.89 and the EC50 (5-HT2C) was 191 nM. The “5-HT2C-Ca2+ FLUX Emax (% 5-HT)” value (5-HT2C) was 99.6 ± 1.5 % 5-HT.
In the case of `CCCN(CC)CCc1c[nH]c2cc(Cl)c(F)cc12` [compound 37, N-(2-(6-chloro-5-fluoro-1H-indol-3-yl)ethyl)-N-ethylpropan-1-amine], the “5-HT2A pKi ± SEM” value (Serotonin 5-HT2A (human)) is reported as 6.04 ± 0.05.
`CC(C)CN(C)CCc1c[nH]c2ccc(F)cc12` [compound 39, N-(2-(5-fluoro-1H-indol-3-yl)ethyl)-N,2-dimethylpropan-1-amine] was tested, and the “5-HT2A pKi ± SEM” value (Serotonin 5-HT2A (human)) was 6.12.
In the case of `CCN(C)CCc1c[nH]c2c(Br)cc(F)cc12` [compound 174, 2-(7-bromo-5-fluoro-1H-indol-3-yl)-N-ethyl-N-methylethan-1-amine], the EC50 (5-HT2A) is reported as 18.6 nM, the “5-HT2A-Ca2+ FLUX Emax (% 5-HT)” value (5-HT2A; IA = Inactive, N=1-3) is reported as 38.2 ± 1.4 % 5-HT and the “5-HT2A pKi ± SEM” value (Serotonin 5-HT2A (human)) is reported as 6.42. The EC50 (5-HT2C) was 13.2 nM and the “5-HT2C-Ca2+ FLUX Emax (% 5-HT)” value (5-HT2C) was 39.9 ± 1.1 % 5-HT.
For `CCCN(CC)CCc1c[nH]c2c(F)cc(F)cc12` [compound 72, N-[2-(5,7-difluoro-1H-indol-3-yl)ethyl]-N-ethylpropan-1-amine], the “5-HT2A pKi ± SEM” value (Serotonin 5-HT2A (human)) was 6.30 ± 0.06.
For `CCCN(CC#N)CCc1c[nH]c2c(F)cccc12` [compound 181, 2-((2-(7-fluoro-1H-indol-3-yl)ethyl)(propyl)amino)acetonitrile], the “5-HT2A-Ca2+ FLUX Emax (% 5-HT)” value (5-HT2A; IA = Inactive, N=1-3) was 68.7 ± 1.7 % 5-HT, the EC50 (5-HT2A; IA = Inactive, N=1-3, read-out: 5-HT2A-Ca2+ FLUX pEC50 (converted)) was 58.9 nM and the “5-HT2B-Ca2+ FLUX Emax (% 5-HT)” value (5-HT2B; IA = Inactive, N=1-3) was 36.8 ± 0.7 % 5-HT. For the same molecule, the EC50 (5-HT2B; IA = Inactive, N=1-3, read-out: 5-HT2B-Ca2+ FLUX pEC50 (converted)) was 295 nM and the “5-HT2A pKi ± SEM” value (Serotonin 5-HT2A (human)) was 5.75.
For `CCN(C)CCc1c[nH]c2c(Cl)cc(F)cc12` [compound 182, 2-(7-chloro-5-fluoro-1H-indol-3-yl)-N-ethyl-N-methylethan-1-amine], the “5-HT2A pKi ± SEM” value (Serotonin 5-HT2A (human)) was 6.62.
With `CN1CCC[C@@H]1Cc1c[nH]c2c(F)cccc12` [compound 186, (R)-7-fluoro-3-((1-methylpyrrolidin-2-yl)methyl)-1H-indole] the “5-HT2A pKi ± SEM” value (Serotonin 5-HT2A (human)) was 6.47.
For `CCC(C)N(CCc1c[nH]c2ccc(F)cc12)C1CCC1` (centres unmarked) [compound 158, N-(sec-butyl)-N-(2-(5-fluoro-1H-indol-3-yl)ethyl)cyclobutanamine], the “5-HT2A pKi ± SEM” value (Serotonin 5-HT2A (human)) was 6.08 ± 0.15.
`CC(C)N(CC#N)CCc1c[nH]c2ccc(F)cc12` [compound 17, 2-((2-(5-fluoro-1H-indol-3-yl)ethyl)(isopropyl)amino)acetonitrile] was tested, and the “5-HT2A pKi ± SEM” value (Serotonin 5-HT2A (human)) was 5.41.
With `CN1CCC[C@@H]1Cc1c[nH]c2cc(F)c(F)cc12` [compound 185, (R)-5,6-difluoro-3-((1-methylpyrrolidin-2-yl)methyl)-1H-indole] the “5-HT2A pKi ± SEM” value (Serotonin 5-HT2A (human)) was 6.90.
`C#CCN(CCc1c[nH]c2ccc(F)cc12)C(C)C` [compound 34, N-(2-(5-fluoro-1H-indol-3-yl)ethyl)-N-isopropylprop-2-yn-1-amine] was tested, and the “5-HT2A pKi ± SEM” value (Serotonin 5-HT2A (human)) was 5.78.
In the case of `CCCN(CCc1c[nH]c2ccc(F)cc12)C1CC1` [compound 161, N-[2-(5-fluoro-1H-indol-3-yl)ethyl]-N-propylcyclopropanamine], the “5-HT2A pKi ± SEM” value (Serotonin 5-HT2A (human)) is reported as 6.50.
In the case of `CCCN1CCC[C@@H]1Cc1c[nH]c2ccc(F)cc12` [compound 184, (R)-5-fluoro-3-((1-propylpyrrolidin-2-yl)methyl)-1H-indole], the “5-HT2A pKi ± SEM” value (Serotonin 5-HT2A (human)) is reported as 6.60.
For `CCCN(CC)CCc1c[nH]c2ccc(F)c(F)c12` [compound 21, N-(2-(4,5-difluoro-1H-indol-3-yl)ethyl)-N-ethylpropan-1-amine], the “5-HT2A pKi ± SEM” value (Serotonin 5-HT2A (human)) was 6.15.
